The test concerns Wnt. Put plainly: Wnt reporter screening assay: SP5 promoter (TCF/LEF) firefly luciferase in SW480 cells. To be noted: SW480 colon cancer cells with SP5 promoter luciferase reporter, 24 hours after compound addition, normalized to DMSO, read-out: Wnt inhibition, IC50. The format is cell-based. The source says: Another screening assay for Wnt activity is described as follows. Reporter cell lines can be generated by stably transducing cells of cancer cell lines (e.g., colon cancer) with a lentiviral construct that include a wnt-responsive promoter driving expression of the firefly luciferase gene.
Lentiviral constructs can be made in which the SP5 promoter, a promoter having eight TCF/LEF binding sites derived from the SP5 promoter, is linked upstream of the firefly luciferase gene. The lentiviral constructs can also include a hygromycin resistance gene as a selectable marker. The SP5 promoter construct can be used to transduce SW480 cells, a colon cancer cell line having a mutated APC gene that generates a truncated APC protein, leading to de-regulated accumulation of β-catenin.
Cultured SW480 cells bearing a reporter construct can be distributed at approximately 10,000 cells per well into 384 well multiwell plates. Compounds from a small molecule compound library can then be added to the wells in half-log dilutions using a three micromolar top concentration. A series of control wells for each cell type receive only buffer and compound solvent. Twenty-four hours after the addition of compound, reporter activity for luciferases can be assayed, for example, by addition of the BrightGlo luminescence reagent (Promega) and the Victor3 plate reader (Perkin Elmer). Readings can be normalized to DMSO only treated cells, and normalized activities can then be used in the IC50 calculations.
A general note: In a reporter assay the amount or activity of a reporter protein is the signal.

Where two headings read alike, the source gives them in different places.

For orientation: IC50 means the concentration needed to halve the response being measured. With `O=C(NCc1ccccc1)c1cncc(-c2ccc3[nH]nc(-c4nc5ccccc5[nH]4)c3c2)c1` [Compound 45, 5-(3-(1H-benzo[d]imidazol-2-yl)-1H-indazol-5-yl)-N-benzylnicotinamide], the half-inhibitory concentration (IC50) (Homo sapiens) fell in the range of 1230 to 2280 nM.

Take `Cc1cc(C)cc(-c2ccc3c(NC(=O)NCC4CC4)n[nH]c3c2)c1` [Compound 48]: under “Homo sapiens”, the IC50 was 390 nM.

As for `Cc1ccc(-n2nc(C(N)=O)c3ccc4[nH]ncc4c32)cc1` [Compound 123], the IC50 (Homo sapiens) was 1220 nM.

Turning to “N-ethyl-4-methyl-5-(3-(4-(4-methyl-1H-imidazol-1-yl)-1H-benzo[d]imidazol-2-yl)-1H-indazol-5-yl)nicotinamide [Compound 43]”, the IC50 was in the range of 77 to 96 nM.

Source of the values: patent publication US20110034441A1, “INDAZOLES AS WNT/B-CATENIN SIGNALING PATHWAY INHIBITORS AND THERAPEUTIC USES THEREOF” (EPITHERIX, LLC, priority 2009, published 2011).
